Source: patent US20250177481A1, “SCO-spondin-derived polypeptides for enhancing synaptic transmission” (AXOLTIS PHARMA, priority 2021, published 2025)
Positions of bridges follow the written chain, without caps; N, C: chain ends. No end group written: not given here.

Legend:
[1] = system: thalamocortical synaptic response (ventrobasal thalamic nucleus to somatosensory cortex); experiment: fEPSP input-output (I/O) recordings in thalamocortical mouse brain slices; format: cell-based, C57Bl6/J mice; conditions: for Normalized fEPSP slope: % of max of vehicle I/O curve, mean of 10 slices
Description: Comparison of postsynaptic responses in control versus NX218 peptide conditions were assessed.
Five (C57Bl6/J) male mice 4-5 weeks-old were obtained from Charles River, France and housed in an animal facility. Animal care was compliant with national and local Ethics committee recommendations. Mice were deeply anesthetized by inhalation of isoflurane then decapitated. The dissected brain was quickly placed in ice-cold oxygenated (95% O2/5% CO2) solution containing 214 mM sucrose, 2.5 mM KCl, 1.25 mM NaH2PO4, 26 mM NaHCO3, 2 mM MgSO4, 2 mM CaCl2 and 10 mM D-glucose.
10 Thalamocortical slices (2 slices per mouse) were prepared as described in Agmon and Connors (1991) and Varela et al. (2013). After its recovery, the brain was placed on a support allowing to elevate the caudal part of the brain until dorsal surface forms a 10-degree angle with the horizontal plane. Then, a section at 55 degrees with respect to the midline was performed and the rostral part was removed. In the slicing chamber, the brain was glued on the sectioned face. Then, the brain was sliced with a thickness of 400 μm. Slices were immediately transferred to a holding chamber filled with an artificial cerebrospinal fluid (aCSF) composed by 124 mM NaCl, 2.5 mM KCl, 1.25 mM NaH2PO4, 26 mM NaHCO3, 2 mM MgSO4, 2 mM CaCl2 and 10 mM D-glucose. The holding chamber was continuously oxygenated and maintained at 35° C. After a recovery period of 30 min, slices were incubated at room temperature for a minimum of 30 min.
For electrophysiological recordings, a single slice was placed in the recording chamber (room temperature) submerged and continuously superfused at a constant rate (2 mL/min) with gassed (95% O2, 5% CO2) aCSF for the reminder of the experiment.
A bipolar tungsten stimulating electrode was placed in the ventrobasal nucleus of the thalamus (the ventrobasal nucleus of the thalamus contains mostly glutamatergic neurons and few GABAergic interneurons) and extracellular field potential was recorded in the somatosensory cortex using a glass microelectrode.
Synaptic transmission Input/Output (I/O) curves were constructed to assess changes in the synaptic transmission, using a range of stimulus intensities from 0 μA to 850 μA with 50 μA intervals. Increasing stimulation intensities results in a linear increase until a maximal plateau in vehicle conditions.
Signals were amplified with an Axopatch 200B amplifier (Molecular Devices, Union City, CA) digitized by a Digidata 1322A interface (Axon Instruments, Molecular Devices, US) and sampled at 10 kHz. Recordings were acquired using Clampex (Molecular Devices) and analyzed with Clampfit (Molecular Devices). Experimenters were blinded to treatment groups for all experiments.
NX218 or vehicle was delivered in the thalamic radiations region by fast focal perfusion. The system consists of syringes containing the respective solutions with tubing lines fusing to a low dead-volume manifold mounted to a micromanipulator. The tip (300-μm diameter) mounted to the manifold was located within a desired distance of less than 1 mm of the target region, with a flow rates of approximately 0.2 mL/min. Tubing lines were controlled by electrical pinch valves which were opened and closed by transistor-transistor logic signals sent out from the DigiData system and parameters set in the perfusion and recording protocol in Clampex 10.3.
Data were analyzed by measuring the slope of individual fEPSPs by linear fitting using Clampfit. The slope of fEPSPs was plotted against different intensities of stimulation (from 0 to 850 μA).

GluN2A = GluN2A level in cortical samples of subchronic PCP mice (WES automated protein analysis); format: in vivo, Swiss CD-1 mice; conditions: PCP + NX218 5 mg/kg D14; PCP alone 73.44; n=5
Description: PCP (or saline for control group) was administered at a dose of 0.2 mg/kg by subcutaneous injections twice daily for 12 days (day 0 to day 11).
Approximately 5 minutes after the test, mice were anaesthetized with 5% isoflurane oxygen mixture. Brains were extracted immediately, then the cortex of each hemisphere were collected. Right and left cortices were transferred into clean pre-labelled microtubes and the exact weight of each sample was recorded. Finally, samples were stored at −80° C. for further analysis.
Brain samples were lysed with a defined buffer lysis consisting of CelLyticMT reagent with 1% of protease and phosphatase inhibitor cocktail (60 μL per well). Lysates were processed at +4° C. and stored at −80° C. at the end of the experiment. For each sample, the quantity of proteins was determined using the micro kit BCA (Pierce). Briefly, lysates were centrifuged and diluted at 1/20 in PBS and mixed, in equal volume, with a micro BCA. After an incubation at 60° C. for 1 hour, the quantity of proteins was measured at 562 nm with a spectrophotometer Nanovue (GE Healthcare) and compared with the standard of Bovine Serum Albumin curve (BSA, Pierce).
Automated protein analysis were performed using the WES™ system (ProteinSimple®): […]
Each protein was evaluated independently. […] 5 samples (biological replicates) per condition were analyzed.

## W-S-G-W-S-S-C-S-R-S-C-G [NX218] (WSGWSSCSRSCG; disulfide 7-11 (inferred))
[1]; particularly for stimulation intensities from 150 to 450 μA
  change of fEPSP slope vs vehicle alone (whole I/O curve): significant increase
[1]; stimulation intensity 0 µA
  Normalized fEPSP slope: 0.37%
[1]; stimulation intensity 50 µA
  Normalized fEPSP slope: 26.12%
[1]; stimulation intensity 100 µA
  Normalized fEPSP slope: 54.34%
[1]; stimulation intensity 150 µA
  Normalized fEPSP slope: 87.31%
[1]; stimulation intensity 200 µA
  Normalized fEPSP slope: 99.95%
[1]; stimulation intensity 250 µA
  Normalized fEPSP slope: 107.48%
[1]; stimulation intensity 300 µA
  Normalized fEPSP slope: 111.20%
[1]; stimulation intensity 350 µA
  Normalized fEPSP slope: 118.22%
[1]; stimulation intensity 400 µA
  Normalized fEPSP slope: 118.91%
[1]; stimulation intensity 450 µA
  Normalized fEPSP slope: 121.63%
[1]; stimulation intensity 500 µA
  Normalized fEPSP slope: 121.16%
[1]; stimulation intensity 550 µA
  Normalized fEPSP slope: 122.81%
[1]; stimulation intensity 600 µA
  Normalized fEPSP slope: 121.42%
[1]; stimulation intensity 650 µA
  Normalized fEPSP slope: 124.24%
[1]; stimulation intensity 700 µA
  Normalized fEPSP slope: 124.14%
[1]; stimulation intensity 750 µA
  Normalized fEPSP slope: 121.65%
[1]; stimulation intensity 800 µA
  Normalized fEPSP slope: 120.97%
[1]; stimulation intensity 850 µA
  Normalized fEPSP slope: 121.41%
GluN2A
  GluN2A level in cortical samples: 116.46 % of control
